# System: 299254-011-R-J1-PDC complex spheroids viability
# Assay: Anticancer human tumor 299254-011-R-J1-PDC patient-derived melanoma cell line growth inhibition [GQUAD]
# Conditions: for IC50: curve of first compound; for viability, T/C: stronger effect = lower value
# Outline: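 Tumor cells were grown as complex spheroids with HUVEC endothelial cells and mesenchymal stem cells as stroma. G-quadruplex stabilizers were combined with targeted agents over half-log dilutions from near the clinical Cmax, or from 10 microM.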
# [1] = second compound 0.0316 µM, first compound 0.0316 µM
# [2] = second compound 0.0316 µM, first compound 0.1 µM
# [3] = second compound 0.0316 µM, first compound 0.316 µM
# [4] = second compound 0.0316 µM, first compound 1 µM
# [5] = second compound 0.0316 µM, first compound 3.16 µM
# [6] = second compound 0.0316 µM, first compound 10 µM
# [7] = second compound 0.1 µM, first compound 0.0316 µM
# [8] = second compound 0.1 µM, first compound 0.1 µM
# [9] = second compound 0.1 µM, first compound 0.316 µM
# [10] = second compound 0.1 µM, first compound 1 µM
# [11] = second compound 0.1 µM, first compound 3.16 µM
# [12] = second compound 0.1 µM, first compound 10 µM
# [13] = second compound 0.316 µM, first compound 0.0316 µM
# [14] = second compound 0.316 µM, first compound 0.1 µM
# [15] = second compound 0.316 µM, first compound 0.316 µM
# [16] = second compound 0.316 µM, first compound 1 µM
# [17] = second compound 0.316 µM, first compound 3.16 µM
# [18] = second compound 0.316 µM, first compound 10 µM
# [19] = second compound 1 µM, first compound 0.0316 µM
# [20] = second compound 1 µM, first compound 0.1 µM
# [21] = second compound 1 µM, first compound 0.316 µM
# [22] = second compound 1 µM, first compound 1 µM
# [23] = second compound 1 µM, first compound 3.16 µM
# [24] = second compound 1 µM, first compound 10 µM
# [25] = second compound 3.16 µM, first compound 0.0316 µM
# [26] = second compound 3.16 µM, first compound 0.1 µM
# [27] = second compound 3.16 µM, first compound 0.316 µM
# [28] = second compound 3.16 µM, first compound 1 µM
# [29] = second compound 3.16 µM, first compound 3.16 µM
# [30] = second compound 3.16 µM, first compound 10 µM
# [31] = second compound 10 µM, first compound 0.0316 µM
# [32] = second compound 10 µM, first compound 0.1 µM
# [33] = second compound 10 µM, first compound 0.316 µM
# [34] = second compound 10 µM, first compound 1 µM
# [35] = second compound 10 µM, first compound 3.16 µM
# [36] = second compound 10 µM, first compound 10 µM
# 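Further: spheroids exposed to the agents for seven days before readout.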
# 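Wherever viability, T/C is given: percent viability relative to DMSO vehicle control wells = 100%.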
structure (smiles),measurement,setting,value
C=CCn1c(=O)c2cnc(Nc3ccc(N4CCN(C)CC4)cc3)nc2n1-c1cccc(C(C)(C)O)n1 + CN(C)c1ccc(Nc2c3ccc(NC(=O)CCN4CCCC4)cc3nc3cc(NC(=O)CCN4CCCC4)ccc23)cc1,IC50,second compound 0.0316 µM,999 nM
same,IC50,second compound 0.1 µM,1790 nM
same,IC50,second compound 0.316 µM,1750 nM
same,IC50,second compound 1 µM,2280 nM
same,IC50,second compound 3.16 µM,1970 nM
same,IC50,second compound 10 µM,1680 nM
same,"viability, T/C",[1],101%
same,"viability, T/C",[2],106%
same,"viability, T/C",[3],77.8%
same,"viability, T/C",[4],49.7%
same,"viability, T/C",[5],46.8%
same,"viability, T/C",[6],31.5%
same,"viability, T/C",[7],88.2%
same,"viability, T/C",[8],94.7%
same,"viability, T/C",[9],76.6%
same,"viability, T/C",[10],69.6%
same,"viability, T/C",[11],30.8%
same,"viability, T/C",[12],27.3%
same,"viability, T/C",[13],92.7%
same,"viability, T/C",[14],81.2%
same,"viability, T/C",[15],95.9%
same,"viability, T/C",[16],65.9%
same,"viability, T/C",[17],34.9%
same,"viability, T/C",[18],31.5%
same,"viability, T/C",[19],120%
same,"viability, T/C",[20],99.5%
same,"viability, T/C",[21],91.9%
same,"viability, T/C",[22],71.1%
same,"viability, T/C",[23],37.4%
same,"viability, T/C",[24],29.6%
same,"viability, T/C",[25],92.4%
same,"viability, T/C",[26],94.5%
same,"viability, T/C",[27],119%
same,"viability, T/C",[28],75.2%
same,"viability, T/C",[29],36.2%
same,"viability, T/C",[30],28.9%
same,"viability, T/C",[31],97.5%
same,"viability, T/C",[32],115%
same,"viability, T/C",[33],92.7%
same,"viability, T/C",[34],67.8%
same,"viability, T/C",[35],27.2%
same,"viability, T/C",[36],28.3%
CC(=O)O[C@H]1C(=O)[C@@]2(C)[C@H]([C@H](OC(=O)c3ccccc3)[C@]3(O)C[C@H](OC(=O)[C@H](O)[C@@H](NC(=O)c4ccccc4)c4ccccc4)C(C)=C1C3(C)C)[C@]1(OC(C)=O)CO[C@@H]1C[C@@H]2O + CN(C)c1ccc(Nc2c3ccc(NC(=O)CCN4CCCC4)cc3nc3cc(NC(=O)CCN4CCCC4)ccc23)cc1,IC50,second compound 0.0316 µM,461 nM
same,IC50,second compound 0.1 µM,364 nM
same,IC50,second compound 0.316 µM,271 nM
same,IC50,second compound 1 µM,316 nM
same,IC50,second compound 3.16 µM,489 nM
same,IC50,second compound 10 µM,524 nM
same,"viability, T/C",[1],73.9%
same,"viability, T/C",[2],84.6%
same,"viability, T/C",[3],60.9%
same,"viability, T/C",[4],26.3%
same,"viability, T/C",[5],19%
same,"viability, T/C",[6],17.5%
same,"viability, T/C",[7],83.8%
same,"viability, T/C",[8],87.4%
same,"viability, T/C",[9],51.9%
same,"viability, T/C",[10],23.7%
same,"viability, T/C",[11],14.5%
same,"viability, T/C",[12],11.2%
same,"viability, T/C",[13],81.5%
same,"viability, T/C",[14],96%
same,"viability, T/C",[15],44%
same,"viability, T/C",[16],37.1%
same,"viability, T/C",[17],22.6%
same,"viability, T/C",[18],16.4%
same,"viability, T/C",[19],93.8%
same,"viability, T/C",[20],78%
same,"viability, T/C",[21],49.8%
same,"viability, T/C",[22],28.6%
same,"viability, T/C",[23],19.1%
same,"viability, T/C",[24],17.7%
same,"viability, T/C",[25],89.1%
same,"viability, T/C",[26],83.8%
same,"viability, T/C",[27],60.6%
same,"viability, T/C",[28],32.2%
same,"viability, T/C",[29],19.1%
same,"viability, T/C",[30],16.4%
same,"viability, T/C",[31],83.3%
same,"viability, T/C",[32],84.3%
same,"viability, T/C",[33],62.7%
same,"viability, T/C",[34],33%
same,"viability, T/C",[35],17.4%
same,"viability, T/C",[36],15.1%
CCCS(=O)(=O)Nc1ccc(F)c(C(=O)c2c[nH]c3ncc(-c4ccc(Cl)cc4)cc23)c1F + CN(C)c1ccc(Nc2c3ccc(NC(=O)CCN4CCCC4)cc3nc3cc(NC(=O)CCN4CCCC4)ccc23)cc1,IC50,second compound 0.0316 µM,8590 nM
same,IC50,second compound 0.1 µM,8100 nM
same,IC50,second compound 0.316 µM,8910 nM
same,IC50,second compound 1 µM,7960 nM
same,IC50,second compound 3.16 µM,8990 nM
same,IC50,second compound 10 µM,7920 nM
same,"viability, T/C",[1],116%
same,"viability, T/C",[2],111%
same,"viability, T/C",[3],116%
same,"viability, T/C",[4],103%
same,"viability, T/C",[5],108%
same,"viability, T/C",[6],41%
same,"viability, T/C",[7],105%
same,"viability, T/C",[8],104%
same,"viability, T/C",[9],101%
same,"viability, T/C",[10],88.4%
same,"viability, T/C",[11],108%
same,"viability, T/C",[12],38.5%
same,"viability, T/C",[13],106%
same,"viability, T/C",[14],111%
same,"viability, T/C",[15],89.2%
same,"viability, T/C",[16],103%
same,"viability, T/C",[17],112%
same,"viability, T/C",[18],43.9%
same,"viability, T/C",[19],105%
same,"viability, T/C",[20],111%
same,"viability, T/C",[21],97.4%
same,"viability, T/C",[22],88.8%
same,"viability, T/C",[23],94.4%
same,"viability, T/C",[24],39.5%
same,"viability, T/C",[25],98.3%
same,"viability, T/C",[26],95.1%
same,"viability, T/C",[27],112%
same,"viability, T/C",[28],97%
same,"viability, T/C",[29],90.1%
same,"viability, T/C",[30],45.8%
same,"viability, T/C",[31],110%
same,"viability, T/C",[32],146%
same,"viability, T/C",[33],116%
same,"viability, T/C",[34],119%
same,"viability, T/C",[35],111%
same,"viability, T/C",[36],34.5%

# Source: PubChem BioAssay AID2060513 (Molecular Pharmacology Branch, DTP, NCI, 2025)
